Earlier results as cited in patent publication US4987122A, “Peptide compounds and medical method of use thereof” (Nycomed AS, priority 1986, dated 1991).
[ ]: non-standard residue; d: D form. pGlu = O=C1CC[C@@H](C(=O)O)N1

Key:
granulopoiesis = conditions: as reported in the European patent application
[1] = subjected to freezing and thawing; reversed by treatment with mercaptoethanol

| Substance | activity of the synthetic compound (granulopoiesis) | activity after freezing and thawing [1] |
| --- | --- | --- |
| pyroGlu-Asp-Asp-Cys-LysOH ([pGlu]DDCK-OH; SMILES NCCCC[C@H](NC(=O)[C@H](CS)NC(=O)[C@H](CC(=O)O)NC(=O)[C@H](CC(=O)O)NC(=O)[C@@H]1CCC(=O)N1)C(=O)O) [synthetic compound with the structure postulated for the natural granulopoiesis factor] | inactive |  |
| pyroGlu-Glu-Asp-Cys-LysOH ([pGlu]EDCK-OH; SMILES NCCCC[C@H](NC(=O)[C@H](CS)NC(=O)[C@H](CC(=O)O)NC(=O)[C@H](CCC(=O)O)NC(=O)[C@@H]1CCC(=O)N1)C(=O)O) |  | stimulatory activity |
